Measurements published in patent publication US20070053950A1, “Composition of polymer microcapsules of biocide for coating material” (priority 2005, published 2007).

Legend:
Format in all cases: cell-based
Oscillatoria tenius = test: Filter paper bioassay, antialgal activity of biocide dispersed in paint; details: around 5 wt % Irgarol in paint; taken after 0, 15 and 30 days of dispersion; even after 100 days
From the text: (§1) W. et.al., Amer. J. Clin. Pathol., 45 (1966) p 493-496 and Thomberry, H. H. Phytopathology 40 (1950) p 419-420). […] The antifungal activity of all the composition samples is indicated by zone of inhibition that is developed around the filter paper discs against the vegetative growth after the spore germination. […] Similar type of results are obtained when microcapsules stored in paint for 12 days and 30 days are taken for such biocidal analysis. The antialgal activity of microencapsulated Irgarol and unencapsulated Irgarol against algal strains (Oscillatoria tenius and Chlorella fusca) is assessed by filter paper bioassay by method as described above for fungal activity. Unencpasulated Irgarol and microcapsules of Irgarol are dispersed in paint such that the concentration of Irgarol is around 5 wt % based on weight of paint and taken for analysis after 0 days, 15 days and 30 days of dispersion period.

Chlorella fusca = test: as above; details: around 5 wt % Irgarol in paint; taken after 0, 15 and 30 days of dispersion; even after 100 days
From the text: as §1

[1] = tested on: fungal strain Aspergillus niger (NRRL337); test: Filter paper bioassay, antifungal activity of biocide dispersed in paint (zone of inhibition); details: sample taken after 0 days of dispersion
Description: Microcapsules of Zinc Pyrithione and unencpasulated Zinc Pyrithione are dispersed in paint such that the concentration of Zinc Pyrithione is around 5 wt % based on weight of paint and taken for analysis after 0 days, 12 days and 30 days of dispersion period. The antifungal activity of all the composition samples is indicated by zone of inhibition that is developed around the filter paper discs against the vegetative growth after the spore germination. The zone of inhibition is measured after 2 days and 100 days after the day on which samples are taken for filter paper bioassay.

CSc1nc(NC2CC2)nc(NC(C)(C)C)n1 [unencapsulated irgarol, Irgarol]
inhibitory activity against algal strain (Oscillatoria tenius): very strong inhibitory activity
inhibitory activity against algal strain (Chlorella fusca): very strong inhibitory activity

Zinc Pyrithione [Unencapsulated Zinc Pyrithione]
Zone of inhibition (mm) (after 2 days) A ([1]; around 5 wt % Zinc Pyrithione in paint, zone measured after 2 days): 41 mm
Zone of inhibition (mm) (after 100 days) B ([1]; around 5 wt % Zinc Pyrithione in paint, zone measured after 100 days): 32 mm
% Reduction in inhibition zone C = [(A − B) × 100]/A ([1]; around 5 wt % biocide in paint, from 2 days to 100 days): 21.9%
